Source: PMC10657444, “Design and evaluation of tadpole-like conformational antimicrobial peptides” (Communications Biology, 2023)
Values after ≈ are worked out from the molar mass of the structure shown. Values joined by “and” are separate entries in the source; they are usually repeats but may differ in a detail not shown here. Equal values may be shown once. Read-outs that look alike come from different tables or passages of the source. Non-standard residues stand in square brackets, D forms with d. Residues, ends and D or L forms follow the SMILES beside them.

Legend:
[1] = test system: MRSA USA 300; experiment: Transmission electron microscopy; assay type: cell-based, Staphylococcus aureus; details: 2 × MIC, 60 min
Description: The processing method of the samples for transmission electron microscopy (TEM) was the same as the treatment for SEM. The samples were then prefixed with 2.5% glutaraldehyde at 4°C overnight, post-fixed with osmium tetroxide for 70 min, and washed twice with PBS (pH 7.4). Subsequently, the samples were dehydrated for 10 min in a graded ethanol series (30, 50, 70, 90, and 100%) followed by 10 min in a mixture of absolute ethanol and acetone (1:1, v/v) and 10 min in absolute acetone. The specimens were transferred to a mixture of absolute acetone and epoxy resin (1:1, v/v) for 30 min and then to pure epoxy resin overnight at a constant temperature. Finally, the samples were sectioned using an ultramicrotome, stained with uranyl acetate and lead citrate, and then observed by TEM (Hitachi H-7650, Japan).

[2] = test system: HEK293T cells; experiment: MTT cytotoxicity assay; assay type: cell-based, human; details: for percent cell viability: HEK293T
Description: (§1) To determine the cytotoxicity of the peptides, we used the MTT (3-(4,5)-dimethylthiahiazo (-z-y1)-3,5-di-phenytetrazoliumromide) dye reduction assay against HEK293T cells. In brief, the 100 μL of cells in 96-well plate were incubated for 24 h at 37 °C, 5% CO2, and then peptide solutions (concentrations ranging from 100 to 0.39 μM) were added and further incubated for 72 h. MTT solution (5 mg/mL) was added and further incubated for 4 h. After incubation, the precipitated MTT formazan crystal was dissolved by addition of dimethyl sulfoxide (DMSO). […]

[3] = MTT cytotoxicity assay; assay type: cell-based, human; details: human; for viability at 72 h, 0.39 µM / viability at 72 h, 6.25 µM / viability at 72 h, 12.5 µM / viability at 72 h, 0.78 µM / viability at 72 h, 1.57 µM / viability at 72 h, 3.13 µM / viability at 72 h, 25 µM / viability at 72 h, 50 µM / viability at 72 h, 100 µM: HEK293T cells
Description: as §1

[4] = test system: MRSA USA 300; assay type: cell-based, Staphylococcus aureus
Description: (§2) The stability of peptides in different media was assessed using the MIC assay described above. Here, the stability of HT2 and RI-HT2 in serum, salt, and different pH were analyzed using methods previously described with some modifications. For serum stability, a solution of 10% or 20% fetal bovine serum (FBS) was made by diluting fetal bovine serum with phosphate buffer saline (PBS). HT2 and RI-HT2 were added for a final concentration of 160 µg/mL of peptide in the FBS solution, and incubation 2 h. Suspension containing no peptide was considered the negative control. The MIC of HT2 and RI-HT2 against MRSA USA 300 and K. pneumoniae ATCC 700603 were measured. For the acid stability assays, the peptides were incubated with different pH values of PBS (pH = 5.5 or 6.4) at 37 °C. These peptide mixtures were then serially diluted in a 96-well plate for the evaluation of antimicrobial activity against bacterial strains. Similarly, for salt stability, the peptides were assessed for their antimicrobial activity against MRSA USA 300 and K. pneumoniae ATCC 700603 in the presence of 150 mM NaCl.

[5] = test system: MRSA USA 300; experiment: Membrane depolarization assay, DiSC3(5); assay type: cell-based, Staphylococcus aureus
Description: MRSA USA 300 and K. pneumoniae ATCC 700603 were inoculated into 5 mL of LB and shaken at 37°C and 225 rpm to OD600 ≈ 0.5 (i.e., mid-logarithmic phase). Bacteria were collected by centrifugation at 8000 rpm for 5 min, and washed twice with assay buffer (5 mM HEPES, 20 mM glucose, 10 mM KCl, pH 7.2). Bacteria were resuspended in the assay buffer to OD595 ≈ 0.1. DiSC3(5) was added to the cells at final concentration of 0.3 µM, wrapped with aluminum foil, and incubated at 37°C, until a stable fluorescence was observed. Two microliter of compound or DMSO were transferred into 96-well black walled polystyrene plates, to which was added 98 µL per well of the dye-saturated bacterial cells to initiate the reaction. The final concentration of HT2 and RI-HT2 were 1 ×, 2 ×, 4 × and 8 × MIC. Plates were immediately read on an Envison at λex = 622 nm/ λem = 670 nm with a kinetic program (reading every 1 min for 10 min) until the maximal intensity achieved was observed.

[6] = test system: MRSA USA 300; experiment: Scanning electron microscopy; assay type: cell-based, Staphylococcus aureus; details: 2 × MIC, 60 min
Description: Mid-log phase bacteria (MRSA USA 300 and K. pneumoniae ATCC 700603) grown in LB broth were adjusted to a density of 5 × 10^6 CFU/mL. […] All samples were centrifuged at 8000 rpm for 5 min, washed and then resuspended in PBS. Bacterial cells were fixed with 2.5% glutaraldehyde, and then incubated at 37°C on a glass slide for 20 min. Samples were dehydrated by passing through gradient ethanol (10%, 30%, 50%, 70%, 90%, and 100%) for 5 min at each concentration. Slides were dried with an automatic critical point drying instrument (Leica EM CPD300), and a small amount of gold was sputtered onto the samples using a sputter coater system to avoid charging in the microscope. Finally, the bacteria were visualized under a field-emission scanning electron microscopy (FESEM) device (Sirion 200).

[7] = test system: K. pneumoniae ATCC 700603; assay type: cell-based, Klebsiella pneumoniae
Description: as §2

[8] = HEK293T, read-out: OD450, cytotoxicity (Fig 2a), replicates
[9] = OD450, cytotoxicity (Fig 2a), replicates

Row | Compound | membrane and intracellular structure by TEM (in words) [1] | toxicity / cytotoxicity against HEK293T cells (in words) [2] | percent cell viability ([2]; 6.25 µM) | percent cell viability ([2]; 12.5 µM) | IC50 at 72 h [3] | viability at 72 h, 6.25 µM [3, 8] | viability at 72 h, 12.5 µM [3, 8] | viability at 72 h, 0.39 µM [3, 9] | viability at 72 h, 0.78 µM [3, 9] | viability at 72 h, 1.57 µM [3, 9] | viability at 72 h, 3.13 µM [3, 9] | viability at 72 h, 25 µM [3, 9] | viability at 72 h, 50 µM [3, 9] | viability at 72 h, 100 µM [3, 9] | MIC against MRSA USA 300 ([4]; USA 300) | MIC against MRSA USA 300 ([4]; USA 300, pH 5.5) | MIC against MRSA USA 300 ([4]; USA 300, pH 6.4) | concentration at which DiSC3(5) fluorescence intensity changed significantly [5] | cell surface morphology by SEM (in words) [6] | MIC against K. pneumoniae ATCC 700603 ([7]; 150 mM NaCl) | further results
1 | CC[C@H](C)[C@H](NC(=O)[C@H](CCCNC(=N)N)NC(=O)[C@H](CCCNC(=N)N)NC(=O)[C@H](CC(C)C)NC(=O)[C@H](Cc1ccccc1)NC(=O)[C@@H](N)CCCNC(=N)N)C(=O)N[C@@H](Cc1ccccc1)C(=O)N[C@@H](Cc1ccccc1)C(=O)N[C@@H](Cc1ccccc1)C(=O)N[C@@H](Cc1ccccc1)C(N)=O [HT2] (H-RFLRRIFFFF-NH2) | cytoplasmic membranes became blurred and separated | did not present | 93.7324 and 94.5028 | 96.2979 and 92.259 | > 100 µM | 99.2% | 92.8% | 100% | 94.2% | 93.1% | 95.4% | 93.2% | 98.4% | 94.3% | 3.13 µM (≈ 4.53 µg/mL) | 3.13 µM (≈ 4.53 µg/mL) | 3.13 µM (≈ 4.53 µg/mL) | 4 × MIC | rough, shrunken, wrinkled and partially damaged | 12.5 µM (≈ 18.1 µg/mL) | viability at 72 h, 0.39 µM ([3]; HEK293T, 0.39 µM, read-out: OD450, cytotoxicity (Fig 2a), replicates): 96.7%; MIC against K. pneumoniae ATCC 700603 ([7]; 10% FBS): 6.25 µM (≈ 9.05 µg/mL); MIC against K. pneumoniae ATCC 700603 ([7]; 20% FBS): 6.25 µM (≈ 9.05 µg/mL); MIC against K. pneumoniae ATCC 700603 ([7]; Normal medium): 6.25 µM (≈ 9.05 µg/mL); MIC against K. pneumoniae ATCC 700603 ([7]; pH 5.5): 12.5 µM (≈ 18.1 µg/mL); MIC against K. pneumoniae ATCC 700603 ([7]; pH 6.4): 6.25 µM (≈ 9.05 µg/mL)
2 | CC[C@@H](C)[C@@H](NC(=O)[C@@H](Cc1ccccc1)NC(=O)[C@@H](Cc1ccccc1)NC(=O)[C@@H](Cc1ccccc1)NC(=O)[C@H](N)Cc1ccccc1)C(=O)N[C@H](CCCNC(=N)N)C(=O)N[C@H](CCCNC(=N)N)C(=O)N[C@H](CC(C)C)C(=O)N[C@H](Cc1ccccc1)C(=O)N[C@H](CCCNC(=N)N)C(N)=O [RI-HT2] (H-[dF][dF][dF][dF][dI][dR][dR][dL][dF][dR]-NH2; N-terminus assumed) | cytoplasmic membranes became blurred and separated | did not present | 88.3759 | 86.6385 and 87.1349 | > 100 µM | 90.2% | 87.8% | 102% | 94.4% | 92.8% | 93% | 84.2% | 77.8% | 75.8% | 3.13 µM (≈ 4.53 µg/mL) | 3.13 µM (≈ 4.53 µg/mL) | 3.13 µM (≈ 4.53 µg/mL) | 8 × MIC | rough, shrunken, wrinkled and partially damaged | 12.5 µM (≈ 18.1 µg/mL) | MIC against K. pneumoniae ATCC 700603 ([7]; ATCC 700603): >100 µM; MIC against K. pneumoniae ATCC 700603 ([7]; Normal medium): 6.25 µM (≈ 9.05 µg/mL); MIC against K. pneumoniae ATCC 700603 ([7]; pH 5.5): 12.5 µM (≈ 18.1 µg/mL); MIC against K. pneumoniae ATCC 700603 ([7]; pH 6.4): 12.5 µM (≈ 18.1 µg/mL)
